Source: patent US20160318933A1, “FUSED PYRAZOLE DERIVATIVE” (SUMITOMO DAINIPPON PHARMA CO., LTD., priority 2013, published 2016)

Experiments:
[1] = Brain penetration study in rat (Kp,uu,brain); format: in vivo; settings: brain and plasma (unbound); 7-week-old SD-type or WKY-type rat; subcutaneous or oral administration; plasma and brain collected 0.5, 1 or 2 hours after administration; LC-MS; read-out: Kp,uu,brain (Unbound brain-to-plasma drug concentration ratio)
Description: In this study, the brain penetration of the present compounds can be evaluated. Specifically, a 7-week-old SD-type or WKY-type rat received the subcutaneous administration of a solution of the present compound in saline or the oral administration of a suspension of the present compound in methylcellulose. Plasma and brain were collected from the treated rat 0.5 hour, 1 hour or 2 hours after the administration, and then the concentrations of the present compound in the plasma and the brain were measured by a LC-MS method.
The protein binding ratios of the present compound to the plasma and the brain were measured by an equilibrium dialysis method.
The concentrations of the present compound in the plasma and the brain as well as the plasma and brain protein binding ratios are applied to the following formula, and thus Kp,uu,brain (Unbound brain-to-plasma drug concentration ratio) can be calculated.
Kp,uu,brain=(the concentration of the present compound in the brain×(100−the brain protein binding ratio (%))/100)/(the concentration of the present compound in the plasma×(100−the plasma protein binding ratio (%))/100)

[2] = target: T1, human brain-derived dopamine D4 receptor (Homo sapiens, UniProt P21917); assay: Agonistic activity in G protein dependent pathway of dopamine D4 receptor (aequorin intracellular calcium luminescence, FDSS); format: cell-based; settings: for EC50: concentration required to achieve a 50% response of Emax, CHO-K1 or HEK293 cells transfected with D4 receptor; for Emax: read-out: Maximal activity on D4 receptor (%)
T1 construct: expressed in transfected cells; host or cells: CHO (CHO-K1) or HEK293 cells
T1 sequence (P21917 1-419): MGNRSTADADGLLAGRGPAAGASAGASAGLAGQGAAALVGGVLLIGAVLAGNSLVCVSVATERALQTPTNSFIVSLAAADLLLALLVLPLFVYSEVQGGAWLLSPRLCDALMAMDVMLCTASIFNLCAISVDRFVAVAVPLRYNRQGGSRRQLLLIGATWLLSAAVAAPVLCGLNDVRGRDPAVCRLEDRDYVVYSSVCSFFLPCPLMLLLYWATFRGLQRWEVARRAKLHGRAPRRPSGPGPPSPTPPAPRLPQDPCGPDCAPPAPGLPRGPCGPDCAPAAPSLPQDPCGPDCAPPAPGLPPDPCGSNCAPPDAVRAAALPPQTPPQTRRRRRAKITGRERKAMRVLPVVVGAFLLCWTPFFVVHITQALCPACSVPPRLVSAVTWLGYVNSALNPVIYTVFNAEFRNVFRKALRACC
How it was run: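 CHO-K1 or HEK293 cells transfected with D4 receptor, cultured 24 h at 37 °C, preloaded with coelenterazine; aequorin luminescence recorded on FDSS after compound addition. Emax taken as maximal activity; EC50 as concentration giving 50% of Emax.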

SMILES | Kp uu [1] | EC50 [2] | Emax [2]
Cc1ncc(CN2CCn3nc(-c4ncccc4C)c(C)c3C2)cn1 [Example 116] | 1.42 | 131 nM | 67%
Cc1c(-c2ncccc2F)nn2c1CN(Cc1ccc(C(F)(F)F)cn1)CC2 [Example 128] | 0.6 | 36 nM | 86%
Fc1cccnc1-c1cc2n(n1)CCN(Cc1ccc3c(n1)CCC3)C2 [Example 129] | 0.58 | 14 nM | 91%
Cc1ncc(CN2CCn3nc(-c4ccccn4)cc3C2)c(N)n1 [Example 22, 2-Methyl-5-{[2-(pyridin-2-yl)-6,7-dihydropyrazolo[1,5-a]pyrazin-5(4H)-yl]methyl}pyrimidine-4-amine] | 0.2 | 109 nM | 62%
Cc1cccnc1-c1cc2n(n1)CCN(Cc1ccc3c(n1)CCC3)C2 [Example 113] | 0.77 | 13 nM | 104%
Cc1cccnc1-c1cc2n(n1)CCN(Cc1nc3ccccc3[nH]1)C2 [Example 144] | 0.79 | 41 nM | 49%
Cc1cccnc1-c1cc2n(n1)CCN(Cc1cccc(OC(F)(F)F)c1)C2 [Example 63] |  | 102 nM | 40%
Fc1ccc(CN2CCCn3nc(-c4ccccn4)cc3C2)cc1 [Example 9] |  | 89 nM | 34%
Cn1nc(CN2CCn3nc(-c4ncccc4C(F)(F)F)cc3C2)c2ccccc21 [Example 153] |  | 94 nM | 57%
Fc1cccnc1-c1cc2n(n1)CCN(Cc1ccc(C(F)(F)F)nc1)C2 [Example 162] |  | 59 nM | 62%
Cc1ncc(CN2CCn3nc(-c4ccccn4)c(Cl)c3C2)c(N)n1 [Example 172, 5-{[3-Chloro-2-(pyridin-2-yl)-6,7-dihydropyrazolo[1,5-a]pyrazin-5 (4H)-yl]methyl}-2-methylpyrimidine-4-amine] |  | 90 nM | 53%
O=C1NCc2cc(CN3CCn4nc(-c5ccccn5)cc4C3)ccc21 [Example 51] |  | 70 nM | 32%
c1ccc(CN2CCCn3nc(-c4ccccn4)cc3C2)cc1 [Example 8] |  | 105 nM | 37%
Cc1cccnc1-c1cc2n(n1)CCN(Cc1ccc(C(F)(F)F)c(C#N)c1)C2 [Example 86] |  | 52 nM | 85%
Cc1nc2c(CN3CCn4nc(-c5ccccn5)cc4C3)cccc2[nH]1 [Example 42] |  | 100 nM | 50%
